These results are taken from patent US20250206718A1, “NITROGEN-CONTAINING HETEROCYCLIC DERIVATIVE INHIBITOR, PREPARATION METHOD THEREFOR AND USE THEREOF” (SHANGHAI HANSOH BIOMEDICAL CO., LTD., priority 2022, published 2025).

For orientation: AUC(0-t) means exposure summed from dosing to a finite time, without extrapolation to infinity. Broadly, the Cmax is the maximum level reached in the sampled fluid or tissue. What is called half-life is how long it takes for the measured level to halve. A higher half-life goes with slow loss.

Chain of Ba/F3 EGFR Del19/C797S cells (P00533 with tags, fused parts or gaps DEL746-750/C797S, form open): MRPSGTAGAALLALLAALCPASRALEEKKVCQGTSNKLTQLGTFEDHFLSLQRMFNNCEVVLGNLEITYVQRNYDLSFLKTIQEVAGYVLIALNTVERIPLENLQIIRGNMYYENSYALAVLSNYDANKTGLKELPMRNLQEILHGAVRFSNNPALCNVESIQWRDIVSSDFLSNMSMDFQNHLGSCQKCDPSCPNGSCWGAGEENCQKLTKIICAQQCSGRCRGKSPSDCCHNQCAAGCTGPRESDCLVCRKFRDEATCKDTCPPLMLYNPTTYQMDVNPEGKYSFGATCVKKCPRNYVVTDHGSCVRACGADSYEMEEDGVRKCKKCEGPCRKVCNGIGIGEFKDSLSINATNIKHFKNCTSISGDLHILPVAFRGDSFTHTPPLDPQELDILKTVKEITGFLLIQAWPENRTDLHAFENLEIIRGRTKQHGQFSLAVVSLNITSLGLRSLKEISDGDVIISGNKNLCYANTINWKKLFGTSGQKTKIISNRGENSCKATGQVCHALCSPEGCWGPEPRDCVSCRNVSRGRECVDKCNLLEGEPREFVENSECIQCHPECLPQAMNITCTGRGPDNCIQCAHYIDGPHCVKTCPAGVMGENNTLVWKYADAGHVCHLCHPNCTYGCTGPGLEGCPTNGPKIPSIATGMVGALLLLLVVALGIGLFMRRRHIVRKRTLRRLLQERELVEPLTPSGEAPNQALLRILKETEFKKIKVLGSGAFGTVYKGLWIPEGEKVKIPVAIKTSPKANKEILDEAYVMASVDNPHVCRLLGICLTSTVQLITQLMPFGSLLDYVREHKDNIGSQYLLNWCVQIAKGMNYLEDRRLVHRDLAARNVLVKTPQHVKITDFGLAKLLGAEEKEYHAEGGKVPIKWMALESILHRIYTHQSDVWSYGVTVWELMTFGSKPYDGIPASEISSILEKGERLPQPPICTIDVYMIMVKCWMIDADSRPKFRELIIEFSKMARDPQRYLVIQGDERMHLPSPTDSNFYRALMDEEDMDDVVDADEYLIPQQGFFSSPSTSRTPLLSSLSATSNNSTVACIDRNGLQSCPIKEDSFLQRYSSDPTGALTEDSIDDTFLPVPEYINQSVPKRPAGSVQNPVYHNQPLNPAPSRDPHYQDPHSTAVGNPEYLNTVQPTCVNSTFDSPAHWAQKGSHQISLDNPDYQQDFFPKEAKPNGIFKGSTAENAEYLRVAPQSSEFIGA

The first data set concerns the target Ba/F3 EGFR Del19/C797S cells (Homo sapiens, UniProt P00533, C797S, cells depend on it, form not given). Kind of data set: Cell proliferation inhibition (Cell Titer-Glo), Ba/F3 EGFR Del19/C797S. Format: cell-based, mouse. The conditions noted are these: 72 hours, CellTiter-Glo, read-out: Ba/F3 EGFR Del19/C797S IC50. From the text:
Experimental objective: The objective of this test example is to test the inhibitory activity of compounds on the proliferation of different EGFR C797S drug-resistant mutant cell lines Ba/F3 EGFR Del19/T790M/C797S, Ba/F3 EGFR L858R/T790M/C797S, and Ba/F3 EGFR Del19/C797S.
• Ba/F3 EGFR Del19/T790M/C797S cells were purchased from KYinno Biotechnology Co., Ltd.; • Ba/F3 EGFR Del19/C797S cells were purchased from CoBioer Biosciences Co., Ltd.; • Ba/F3 EGFR L858R/T790M/C797S cells were purchased from CoBioer Biosciences Co., Ltd.; • Cell Titer-Glo was purchased from Promega, with a catalog number of G7573; • RPMI 1640 was purchased from Gibco, with a catalog number of 22400089; • FBS was purchased from Gibco, with a catalog number of 10091148; • cell culture plates were purchased from Corning, with a catalog number of 3610.
The inhibitory activity of the compound on the proliferation of different EGFR C797S drug-resistant mutant cell lines was detected using the Cell Titer-Glo method. The different cell lines were cultured in RPMI 1640 complete culture medium containing 10% FBS under conditions of 37° C. and 5% CO2, the cells were collected by centrifugation when growing to a certain density, and adjusted to appropriate cell density after counting, the cells were spread on a white 96-well plate at 90 μL/well, and cultured in a 37° C., 5% CO2 incubator overnight, prepared compound solutions of different concentrations were added at 10 μL/well, corresponding solvent controls were set, and all wells were cultured in a 37° C., 5% CO2 incubator for 72 hours, 50 μL of CellTiter-Glo solution was added to each well, shook and mixed evenly, and incubated in the dark for 10 minutes, and a BioTek Synergy H1 microplate reader was used for reading.
The luminescence signal value was used to calculate the inhibition rate. Graphpad Prism software was used to fit the concentration and inhibition rate to a nonlinear regression curve, so as to obtain the IC50 value, as shown in the Table below for details.
For orientation: In ATP-based viability assays light output follows the ATP content of the culture.
As for `[2H]C([2H])([2H])c1nn(C)cc1-c1nccc(Nc2cc3c(C(C)C)ccc(N4C[C@H](CS(C)(=O)=O)[C@H]4C)c3cn2)n1` [Example 3, 5-isopropyl-8-((2R,3S)-2-methyl-3-((methanesulfonyl)methyl)azetidin-1-yl)-N-(2-(1-methyl-3-(methyl-d3)-1H-pyrazol-4-yl)pyrimidin-4-yl)isoquinolin-3-amine], the GI50 worked out at 16 nM. On the same count and under the same terms, for `CC(C)c1ccc(N2C[C@H](CS(C)(=O)=O)[C@H]2C)c2cnc(Nc3ccnc(-c4cn(C[C@H]5CCN5C)nc4Cl)n3)cc12` [Example 146, N-(2-(3-chloro-1-(((R)-1-methylazetidin-2-yl)methyl)-1H-pyrazol-4-yl)pyrimidin-4-yl)-5-isopropyl-8-((2R,3S)-2-methyl-3-((methanesulfonyl)methyl)azetidin-1-yl)isoquinolin-3-amine] the value was 80 nM; for `CC(C)c1ccc(N2C[C@H](CS(C)(=O)=O)[C@H]2C)c2cnc(Nc3ccnc(-c4cn(C5CC6CN(C)CC6C5)nc4Cl)n3)cc12` (stereo partly drawn) [Example 150, N-(2-(3-chloro-1-(2-methyloctahydrocyclopentadieno[c]pyrrol-5-yl)-1H-pyrazol-4-yl)pyrimidin-4-yl)-5-isopropyl-8-((2R,3S)-2-methyl-3-((methanesulfonyl)methyl)azetidin-1-yl)isoquinolin-3-amine], 70 nM; for `CC(C)c1ccc(N2C[C@H](CS(C)(=O)=O)[C@H]2C)c2cnc(Nc3ccnc(-c4cn(C5CC(C#N)C5)nc4Cl)n3)cc12` (stereo partly drawn) [Example 151A, 3-(3-chloro-4-(4-((5-isopropyl-8-((2R,3S)-2-methyl-3-((methanesulfonyl)methyl)azetidin-1-yl)isoquinolin-3-yl)amino)pyrimidin-2-yl)-1H-pyrazol-1-yl)cyclobutane-1-carbonitrile], 41 nM. The same measure, in the same setting: with `CC(C)c1ccc(N2C[C@H](CS(C)(=O)=O)[C@H]2C)c2cnc(Nc3ccnc(-c4cn(C5CC(O)C5)nc4Cl)n3)cc12` (stereo partly drawn) [Example 154A, 3-(3-chloro-4-(4-((5-isopropyl-8-((2R,3S)-2-methyl-3-((methanesulfonyl)methyl)azetidin-1-yl)isoquinolin-3-yl)amino)pyrimidin-2-yl)-1H-pyrazol-1-yl)cyclobutan-1-ol] the figure was 22 nM; with `CC(C)c1ccc(N2C[C@H](CS(C)(=O)=O)[C@H]2C)c2cnc(Nc3ccnc(-c4cn(C5CC(=O)C5)nc4Cl)n3)cc12` [Example 156, 3-(3-chloro-4-(4-((5-isopropyl-8-((2R,3S)-2-methyl-3-((methanesulfonyl)methyl)azetidin-1-yl)isoquinolin-3-yl)amino)pyrimidin-2-yl)-1H-pyrazol-1-yl)cyclobutan-1-one], 42 nM; with `CC(C)c1ccc(N2C[C@H](CS(C)(=O)=O)[C@H]2C)c2cnc(Nc3ccnc(-c4cn(C5CCN(C)CC5)nc4Cl)n3)cc12` [Example 158, N-(2-(3-chloro-1-(1-methylpiperidin-4-yl)-1H-pyrazol-4-yl)pyrimidin-4-yl)-5-isopropyl-8-((2R,3S)-2-methyl-3-((methanesulfonyl)methyl)azetidin-1-yl)isoquinolin-3-amine], 50 nM. As to `CC(C)c1ccc(N2C[C@H](CS(C)(=O)=O)[C@H]2C)c2cnc(Nc3ccnc(-c4cn(CC5CCO5)nc4Cl)n3)cc12` (stereo partly drawn) [Example 165, N-(2-(3-chloro-1-(oxetan-2-ylmethyl)-1H-pyrazol-4-yl)pyrimidin-4-yl)-5-isopropyl-8-((2R,3S)-2-methyl-3-((methanesulfonyl)methyl)azetidin-1-yl)isoquinolin-3-amine], the GI50 was 22 nM. As to `Cc1nn(C)cc1-c1nccc(Nc2cc3c(C(C)C)ccc(N4CC(CS(C)(=O)=NC#N)C4)c3cn2)n1` (stereo not drawn) [Example 167, N-(((1-(3-((2-(1,3-dimethyl-1H-pyrazol-4-yl)pyrimidin-4-yl)amino)-5-isopropylisoquinolin-8-yl)azetidin-3-yl)methyl)(methyl)(carbonyl)-16-sulfanylidene)cyanamide], the GI50 came out at 74 nM. On the same count and under the same terms, with `CC(C)c1c(N)cc(N2C[C@H](CS(C)(=O)=O)[C@H]2C)c2cnc(Nc3ccnc(-c4cn(C)nc4Cl)n3)cc12` [Example 169, N3-(2-(3-chloro-1-methyl-1H-pyrazol-4-yl)pyrimidin-4-yl)-5-isopropyl-8-((2R,3S)-2-methyl-3-((methanesulfonyl)methyl)azetidin-1-yl)isoquinoline-3,6-diamine] the figure was 52 nM; with `CC(C)c1ccc(N2C[C@H](CS(C)(=O)=O)[C@H]2C)c2cnc(Nc3ccnc(-c4c[nH]nc4Cl)n3)cc12` [Example 170, N-(2-(3-chloro-1H-pyrazol-4-yl)pyrimidin-4-yl)-5-isopropyl-8-((2R,3S)-2-methyl-3-((methanesulfonyl)methyl)azetidin-1-yl)isoquinolin-3-amine], 60 nM; with `CC(C)c1ccc(N2C[C@H](CS(C)(=O)=O)[C@H]2C)c2cnc(Nc3ccnc(-c4cn(C(F)F)nc4Cl)n3)cc12` [Example 177, N-(2-(3-chloro-1-(difluoromethyl)-1H-pyrazol-4-yl)pyrimidin-4-yl)-5-isopropyl-8-((2R,3S)-2-methyl-3-((methanesulfonyl)methyl)azetidin-1-yl)isoquinolin-3-amine], 43 nM.

As to `CC(C)c1c(F)cc(N2CC(NS(C)(=O)=O)C2)c2cnc(Nc3ccnc(-c4cn(C)nc4Cl)n3)cc12` [Example 178, N-(1-(3-((2-(3-chloro-1-methyl-1H-pyrazol-4-yl)pyrimidin-4-yl)amino)-6-fluoro-5-isopropylisoquinolin-8-yl)azetidin-3-yl)methanesulfonamide], the GI50 is 19 nM. The same measure, in the same setting: with `CC(C)c1ccc(N2C[C@H](CS(C)(=O)=O)[C@H]2C)c2cnc(Nc3ccnc(-c4cn(C(C)CC#N)nc4Cl)n3)cc12` (stereo partly drawn) [Example 185, 3-(3-chloro-4-(4-((5-isopropyl-8-((2R,3S)-2-methyl-3-((methanesulfonyl)methyl)azetidin-1-yl)isoquinolin-3-yl)amino)pyrimidin-2-yl)-1H-pyrazol-1-yl)butyronitrile] the figure was 80 nM; with `CC1CC(Cn2cc(-c3nccc(Nc4cc5c(C(C)C)ccc(N6C[C@H](CS(C)(=O)=O)[C@H]6C)c5cn4)n3)c(Cl)n2)O1` (stereo partly drawn) [Example 188, N-(2-(3-chloro-1-((4-methyloxetan-2-yl)methyl)-1H-pyrazol-4-yl)pyrimidin-4-yl)-5-isopropyl-8-((2R,3S)-2-methyl-3-((methanesulfonyl)methyl)azetidin-1-yl)isoquinolin-3-amine], 65 nM.

System in another data set: not listed separately
Kind of data set: Rat pharmacokinetic evaluation test. The following applies: Sprague-Dawley (SD), po, SD rats, male, p.o. 5 mg/kg, plasma. The data set is classed as in vivo. The protocol: SD rats were used as test animals to study the pharmacokinetic behavior of the compounds of the present invention in the rat body (plasma) after oral administration at a dose of 5 mg/kg.
2.2 Experimental Animals: 3 SD Rats/Group, Male, from Shanghai Jiesijie Experimental Animal Co., Ltd., Animal Production License Number (SCXK (Shanghai) 2013-0006 No. 311620400001794).
• Oral administration drug preparation: 20% solutol HS15 in 0.5% MC (methylcellulose)
20 g of a Solutol HS15 solid and 0.5 g of a MC solid powder were weighed and dissolved in 80 mL of purified water, and the mixture was vortexed, mixed until uniform, and subjected to ultrasound treatment to obtain a clear solution of 20% solutol HS15 in 0.5% MC.
The example compound was weighed into a 20 mL glass bottle, the solution was added thereto and the mixture was subjected to ultrasound treatment for 10 minutes to obtain a clear solution with a concentration of 0.5 mg/mL.
3 male SD rats were administered p.o. respectively after the 3 male SD rats were fasted overnight; the p.o. dose was 5 mg/kg and the administration volume was 10 mL/kg.
Blood collection: Before and after administration to rats, 0.2 mL of blood was collected from the jugular vein at 0.25, 0.5, 1, 2, 4, 6, 8 and 24 h, and placed in an EDTA-K2 anticoagulation tube, which was centrifuged at 6000 rpm at 4° C. for 6 min to separate plasma which was stored at −80° C.; the rats were fed 4 h after administration.
1) 160 μL of acetonitrile was added to 40 μL of plasma sample for precipitation, mixed and centrifuged at 3500×g for 5 to 20 min.
2) the treated supernatant solution was taken and subjected to LC/MS/MS to analyze the concentrations of the test compounds. LC/MS/MS analysis instrument: AB Sciex API 4000 Qtrap.
• Liquid phase conditions: Shimadzu LC-20AD pump • Chromatographic column: Agilent ZORBAX XDB-C18 (50×2.1 mm, 3.5 μm) mobile phase: liquid A is 0.1% aqueous formic acid solution, liquid B is acetonitrile • Flow rate: 0.4 mL/min • Elution time: 0-4.0 min, the eluent is as follows:
The main pharmacokinetic parameters were calculated using WinNonlin 6.1.
Consider `[2H]C([2H])([2H])c1nn(C)cc1-c1nccc(Nc2cc3c(C(C)C)ccc(N4C[C@H](CS(C)(=O)=O)[C@H]4C)c3cn2)n1` [Example 3, 5-isopropyl-8-((2R,3S)-2-methyl-3-((methanesulfonyl)methyl)azetidin-1-yl)-N-(2-(1-methyl-3-(methyl-d3)-1H-pyrazol-4-yl)pyrimidin-4-yl)isoquinolin-3-amine], for which the AUC(0-t) was found to be 2380 ng·h/mL, the concentration peaked (Cmax) at 458 ng/mL and the half-life is 4.1 h.
